What was measured:
[1] = organism: Homo sapiens; assay: Selectivity ratio for human HDAC4 over human HDAC2
[2] = organism: Homo sapiens; assay: Selectivity ratio for human HDAC4 over human HDAC8
[3] = organism: Homo sapiens; assay: Selectivity ratio for human HDAC4 over human HDAC1
[4] = organism: Homo sapiens; assay: Selectivity ratio for human HDAC4 over human HDAC3

Measured: Selectivity ratio

Cn1cc(/C=C/C(=O)c2cccc(F)c2)cc1/C=C/C(=O)NO
176: all assays above

From ChEMBL document CHEMBL2396570, “Structural basis for the design and synthesis of selective HDAC inhibitors” (Bioorg Med Chem, 2013)
